Drawing on ChEMBL document CHEMBL1153338, “Semi-synthetic and synthetic 1,2,4-trioxaquines and 1,2,4-trioxolaquines: synthesis, preliminary SAR and comparison with acridine endoperoxide conjugates” (Bioorg Med Chem Lett, 2009), this text covers IC50 for 15 compounds.

The structures appear in SMILES notation.

Test [1] relates to Plasmodium falciparum. Briefly: Antimalarial activity against chloroquine-sensitive Plasmodium falciparum 3D7 infected type A+ human erythrocytes after 24 hrs by [G-3H]hypoxanthine uptake. The class given is functional, organism-based. Conditions: 3D7, 24 h.
In test [2] the test system is Plasmodium falciparum. Briefly: Antimalarial activity against chloroquine-resistant Plasmodium falciparum K1 infected type A+ human erythrocytes after 24 hrs by [G-3H]hypoxanthine uptake. Conditions: K1, 24 h. The class given is functional, organism-based.

On to `O=C1CCC2(CC1)OOC1(O2)C2CC3CC(C2)CC1C3` (stereo not given), for which the figures for the IC50 in the test with Plasmodium falciparum [1] and in the test with Plasmodium falciparum [2] were 3.1 nM and 3.02 nM, respectively.
As for `C[C@H]1[C@@H](CCNCCCCCNc2ccnc3cc(Cl)ccc23)O[C@@H]2O[C@@]3(C)CC[C@H]4[C@H](C)CC[C@@H]1[C@@]24OO3`, the figures for the IC50 in the test on Plasmodium falciparum [1] and with Plasmodium falciparum [2] were 24.2 nM and 16.2 nM, respectively.
As for `C[C@H]1[C@@H](CCNCCCCNc2ccnc3cc(Cl)ccc23)O[C@@H]2O[C@@]3(C)CC[C@H]4[C@H](C)CC[C@@H]1[C@@]24OO3`, the values for the IC50 in the test on Plasmodium falciparum [1] and in the test on Plasmodium falciparum [2] were 12.6 nM and 13.2 nM, respectively.
Turning to `COc1ccc2nc3cc(Cl)ccc3c(N3CCN(C4CCC5(CC4)OOC4(O5)C5CC6CC(C5)CC4C6)CC3)c2c1` (stereo not given), the IC50 – broadly, the midpoint of a concentration-inhibition curve – turned out to be 12.3 nM in the test on Plasmodium falciparum [1] and 6.76 nM with Plasmodium falciparum [2].
With `COc1ccc2nc3cc(Cl)ccc3c(NCCCNC3CCC4(CC3)OOC3(O4)C4CC5CC(C4)CC3C5)c2c1` (stereo not given), the IC50 was 12.5 nM in the test on Plasmodium falciparum [1] and 11.1 nM in the test with Plasmodium falciparum [2].
On to `Clc1ccc2c(NCCCNC3CCC4(CC3)OOC3(O4)C4CC5CC(C4)CC3C5)ccnc2c1` (stereo not given), for which the results for the IC50 with Plasmodium falciparum [1] and in the test with Plasmodium falciparum [2] were 12.3 nM and 8.32 nM, respectively.
With `Clc1ccc2c(N3CCN(C4CCC5(CC4)OOC4(O5)C5CC6CC(C5)CC4C6)CC3)ccnc2c1` (stereo not given), the IC50 in the test on Plasmodium falciparum [1] was 12.6 nM; in the test on Plasmodium falciparum [2], 26.2 nM.
On to `COc1ccc2nc3cc(Cl)ccc3c(NCCNC3CCC4(CC3)OOC3(O4)C4CC5CC(C4)CC3C5)c2c1` (stereo not given), for which the IC50 in the test with Plasmodium falciparum [1] stood at 9.67 nM; with Plasmodium falciparum [2], 7.2 nM.
Consider `COc1ccc2nc3cc(Cl)ccc3c(NCCNCc3ccc(CO[C@H]4O[C@@H]5O[C@@]6(C)CC[C@H]7[C@H](C)CC[C@@H]([C@H]4C)[C@@]57OO6)cc3)c2c1`, for which the IC50 in the test with Plasmodium falciparum [1] stood at 12.3 nM; in the test on Plasmodium falciparum [2] it was 19.3 nM.
Consider `C[C@H]1[C@@H](CC(=O)NCCCNc2ccnc3cc(Cl)ccc23)O[C@@H]2O[C@@]3(C)CC[C@H]4[C@H](C)CC[C@@H]1[C@@]24OO3`, for which the concentration for half-maximal inhibition (IC50) with Plasmodium falciparum [1] was 9.34 nM; in the test with Plasmodium falciparum [2], 8.22 nM.
Turning to `COc1ccc2nc3cc(Cl)ccc3c(NCCCNCc3ccc(CO[C@H]4O[C@@H]5O[C@@]6(C)CC[C@H]7[C@H](C)CC[C@@H]([C@H]4C)[C@@]57OO6)cc3)c2c1`, the IC50 with Plasmodium falciparum [1] is 16.3 nM; in the test with Plasmodium falciparum [2], 20.2 nM.
On to `COc1ccc2nc3cc(Cl)ccc3c(NCCNCC[C@H]3O[C@@H]4O[C@@]5(C)CC[C@H]6[C@H](C)CC[C@@H]([C@H]3C)[C@@]46OO5)c2c1`, for which the half-maximal inhibitory concentration (IC50) in the test with Plasmodium falciparum [1] came to 12.5 nM; in the test on Plasmodium falciparum [2] it was 14.3 nM.
`C[C@H]1[C@@H](CCNCCNc2ccnc3cc(Cl)ccc23)O[C@@H]2O[C@@]3(C)CC[C@H]4[C@H](C)CC[C@@H]1[C@@]24OO3`: the IC50 is 5.4 nM in the test on Plasmodium falciparum [1] and 8.7 nM in the test on Plasmodium falciparum [2].
For the compound `C[C@H]1[C@@H](CCNCCCNc2ccnc3cc(Cl)ccc23)O[C@@H]2O[C@@]3(C)CC[C@H]4[C@H](C)CC[C@@H]1[C@@]24OO3`, the half-inhibitory concentration (IC50) in the test with Plasmodium falciparum [1] worked out at 11.5 nM; with Plasmodium falciparum [2], 12.6 nM.
In the same order, the values of `Clc1ccc2c(NCCNC3CCC4(CC3)OOC3(O4)C4CC5CC(C4)CC3C5)ccnc2c1` (stereo not given) are 6.56 nM and 3.6 nM.
